Data set [1] has as its target T1, Calcitonin gene-related peptide type 1 receptor (Homo sapiens, UniProt O60894+Q16602). The experiment in a line: Antagonist activity at human recombinant CL receptor /RAMP1 assessed as inhibition of cAMP accumulation by cell based assay. Type of data set: functional. A general note: Changes in cAMP serve as a functional read-out for many G protein-coupled receptors.

Data set [2] has as its target T1, Calcitonin gene-related peptide type 1 receptor. The experiment in a line: Displacement of [125I]CGRP from human recombinant CL receptor /RAMP1. On the technique in general: Loss of bound radioactivity is the signal in a displacement assay; it reports binding, not function.
Data set [3] has the same target. The experiment in a line: Antagonist activity at human recombinant CL receptor /RAMP1 assessed as inhibition of cAMP accumulation in presence of 50% human serum by cell based assay. It counts as functional.
Data set [4] can be described thus: Cmax in dog at 0.5 mg/kg, iv and 1.0 mg/kg, po. Type of data set: ADME, organism-based, Canis lupus familiaris. The settings on record: in vivo.
A short description of data set [5]: Clearance in dog at 0.5 mg/kg, iv and 1.0 mg/kg, po. It counts as ADME, organism-based, Canis lupus familiaris. To be noted: in vivo.
A short description of data set [6]: Bioavailability in dog at 1.0 mg/kg, po. It counts as ADME, organism-based, Canis lupus familiaris. The settings on record: in vivo.
A short description of data set [7]: Half life in dog at 0.5 mg/kg, iv and 1.0 mg/kg, po. Type of data set: ADME, organism-based, Canis lupus familiaris. The settings on record: in vivo.
Data set [8] is described as follows: Clearance in rat at 2.0 mg/kg, iv and 10 mg/kg, po. It counts as ADME, organism-based. The settings on record: in vivo.
Data set [9] is described as follows: Cmax in rat at 2.0 mg/kg, iv and 10 mg/kg, po. To be noted: in vivo. Type of data set: ADME, organism-based.
Data set [10] is described as follows: Half life in rat at 2.0 mg/kg, iv and 10 mg/kg, po. It counts as ADME, organism-based. To be noted: in vivo.
Data set [11] in a line: Bioavailability in rat at 10 mg/kg, po. It counts as ADME, organism-based. The settings on record: in vivo.

What is called IC50 is the midpoint of a concentration-inhibition curve. As usually defined, the Ki is a dissociation constant, usually derived from enzyme kinetics or from competition with a known ligand. The term Cmax denotes the highest concentration seen after dosing. As a reminder, the bioavailability is dose-corrected exposure relative to a reference, in per cent. Read a high bioavailability as good availability. As a reminder, the half-life is how long it takes for the measured level to halve. Read a low half-life as rapid decline.

T1 sequence (Q16602 whole entry, one chain of several): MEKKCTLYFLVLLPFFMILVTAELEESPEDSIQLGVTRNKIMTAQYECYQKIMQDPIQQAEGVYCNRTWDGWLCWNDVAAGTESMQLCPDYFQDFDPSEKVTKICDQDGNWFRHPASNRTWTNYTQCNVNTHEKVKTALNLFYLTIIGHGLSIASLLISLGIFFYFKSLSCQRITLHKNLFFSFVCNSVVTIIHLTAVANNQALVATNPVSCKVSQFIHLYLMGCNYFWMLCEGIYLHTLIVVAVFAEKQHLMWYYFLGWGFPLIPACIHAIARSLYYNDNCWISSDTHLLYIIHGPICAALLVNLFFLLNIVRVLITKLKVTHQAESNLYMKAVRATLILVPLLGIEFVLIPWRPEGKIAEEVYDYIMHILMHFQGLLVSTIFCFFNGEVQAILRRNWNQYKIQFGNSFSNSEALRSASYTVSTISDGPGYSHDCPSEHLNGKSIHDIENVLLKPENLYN

For `O=C(Nc1cc(-c2ccc(O)cc2)cn(CC(F)(F)F)c1=O)N1CCC(n2c(=O)[nH]c3ncccc32)CC1`, the IC50 in [1] turned out to be 0.282 µM; in [3], 0.971 µM. Moreover, the Ki in [2] worked out at 0.096 µM.

As for `O=C(Nc1cc(-c2cccnc2)cn(CC(F)(F)F)c1=O)N1CCC(n2c(=O)[nH]c3ncccc32)CC1`, the highest level in data set [4] (Cmax) was 7.4 µM. Besides, the clearance in data set [5] worked out at 0.3 mL/min/kg. The compound further displayed a bioavailability in data set [6] of 56%. The half-life in data set [7] is 5.4 h. The half-inhibitory concentration (IC50) in data set [1] was 0.651 µM. In addition, in [2], the Ki amounted to 0.635 µM.

On to `O=C(Nc1cc(-c2ccccc2)cn(CC(F)(F)F)c1=O)N1CCC(n2c(=O)[nH]c3ncccc32)CC1`, for which the results for the clearance in data set [8] and in [5] were 2.3 mL/min/kg and 0.2 mL/min/kg, respectively. The Cmax in data set [9] turned out to be 5.3 µM; in [4], 10.3 µM. In addition, the bioavailability worked out at 58% in data set [6] and 31% in data set [11]. Further, the half-life is 3.7 h in [7] and 2.5 h in data set [10]. For the same compound, the half-inhibitory concentration (IC50) in data set [1] stood at 0.209 µM. In data set [2], the Ki came out at 0.095 µM.

Consider `O=C(Nc1cc(-c2ccsc2)cn(CC(F)(F)F)c1=O)N1CCC(n2c(=O)[nH]c3ncccc32)CC1`, for which the clearance in data set [8] came out at 9.6 mL/min/kg. In [9], this compound gave a Cmax of 5.1 µM. This compound also gave a half-life in data set [10] of 0.9 h. Also, the bioavailability in data set [11] turned out to be 44%. Also, the IC50 in data set [1] is 0.345 µM. Besides, the inhibition constant (Ki) in data set [2] was 0.105 µM.

Turning to `COCCn1cc(-c2ccn[nH]2)cc(NC(=O)N2CCC(n3c(=O)[nH]c4ncccc43)CC2)c1=O`, the IC50 in [1] was determined as 0.307 µM; in data set [3] it was 0.394 µM. For the same compound, the inhibition constant Ki in data set [2] is 0.14 µM.

As to `COCCn1cc(-c2cccnc2)cc(NC(=O)N2CCC(n3c(=O)[nH]c4ncccc43)CC2)c1=O`, in [1], the 50% inhibitory concentration (IC50) was 1.19 µM. Besides, in data set [2], the Ki is 0.695 µM.

As to `O=C(Nc1cc(-c2ccccc2)cn(CC2CC2)c1=O)N1CCC(n2cc(-c3ccccc3)[nH]c2=O)CC1`, the 50% inhibitory concentration (IC50) in data set [1] was 0.36 µM. Moreover, the Ki in data set [2] was found to be 0.08 µM.

As for `COc1ccc(-c2cc(NC(=O)N3CCC(n4c(=O)[nH]c5ncccc54)CC3)c(=O)n(C)c2)cc1`, the 50% inhibitory concentration (IC50) in data set [1] is 1.53 µM. The Ki in data set [2] came out at 0.495 µM.

As for `COCCn1cc(-c2ccsc2)cc(NC(=O)N2CCC(n3c(=O)[nH]c4ncccc43)CC2)c1=O`, the clearance in data set [8] amounted to 23.5 mL/min/kg. In data set [9], this compound returned a Cmax of 0.08 µM. The compound further gave a half-life in data set [10] of 2.8 h. The bioavailability in data set [11] is 1%. The IC50 in data set [1] was determined as 0.54 µM. Besides, the Ki in data set [2] is 0.39 µM.

For `O=C(Nc1cc(-c2cccc(F)c2)cn(CC(F)(F)F)c1=O)N1CCC(n2c(=O)[nH]c3ncccc32)CC1`, in data set [1], the IC50 is 0.119 µM. In addition, in [2], the inhibitory constant (Ki) is 0.042 µM.

Regarding `Cn1cc(-c2ccc(C(=O)O)cc2)cc(NC(=O)N2CCC(n3c(=O)[nH]c4ncccc43)CC2)c1=O`, the inhibition constant (Ki) in [2] was 9 µM.

For the compound `COCCn1cc(-c2cccc(F)c2F)cc(NC(=O)N2CCC(n3c(=O)[nH]c4ncccc43)CC2)c1=O`, the half-inhibitory concentration (IC50) in data set [1] worked out at 0.164 µM; in data set [3], 1 µM. Besides, in data set [2], the Ki stood at 0.041 µM.

With `O=C(Nc1cc(-c2cccc(F)c2F)cn(CC(F)(F)F)c1=O)N1CCC(n2c(=O)[nH]c3ncccc32)CC1`, the clearance in [8] turned out to be 0.8 mL/min/kg; in [5] it was 0.2 mL/min/kg. Further, the peak concentration (Cmax) in data set [9] and in data set [4] was 9.4 µM each time. In addition, the bioavailability stood at 65% in [6] and 34% in [11]. The half-life in data set [7] is 3.3 h; in data set [10] it was 6.3 h. Further, the half-maximal inhibitory concentration (IC50) in [1] worked out at 0.018 µM; in data set [3], 0.811 µM. Further, the Ki in data set [2] was 0.017 µM.

Take `Cn1cc(-c2ccsc2)cc(NC(=O)N2CCC(n3c(=O)[nH]c4ncccc43)CC2)c1=O`: the clearance in data set [8] is 8.9 mL/min/kg. In data set [9], this compound registered a maximum concentration (Cmax) of 7.4 µM. Besides, the half-life in data set [10] is 1 h. The bioavailability in data set [11] was 47%. In addition, the half-inhibitory concentration (IC50) in data set [1] stood at 0.33 µM. In addition, in [2], the Ki stood at 0.075 µM.

With `Cn1cc(-c2ccccc2F)cc(NC(=O)N2CCC(n3c(=O)[nH]c4ncccc43)CC2)c1=O`, in [1], the IC50 turned out to be 0.477 µM. Besides, the Ki in [2] came out at 0.213 µM.

Turning to `Cn1cc(C2C=CN=N2)cc(NC(=O)N2CCC(n3c(=O)[nH]c4ncccc43)CC2)c1=O` (stereo not given), the Cmax in data set [4] is 0.3 µM. In [5], this compound displayed a clearance of 2.8 mL/min/kg. The bioavailability in data set [6] was determined as 6%. The compound further showed a half-life in [7] of 1.2 h. Also, the IC50 in data set [1] came to 0.184 µM; in data set [3], 0.872 µM. In addition, the Ki in [2] was 0.071 µM.

Regarding `Cn1cc(-c2ncccn2)cc(NC(=O)N2CCC(n3c(=O)[nH]c4ncccc43)CC2)c1=O`, in data set [2], the inhibition constant (Ki) is 1.9 µM.

`Cn1cc(-c2ccccc2)cc(NC(=O)N2CCC(n3c(=O)[nH]c4ncccc43)CC2)c1=O`: in data set [8], the clearance came to 1.3 mL/min/kg. Also, the Cmax in data set [9] came to 20.3 µM. Also, the half-life in data set [10] is 3 h. Further, the bioavailability in [11] was 40%. Further, the half-inhibitory concentration (IC50) stood at 0.495 µM in [1] and 10.9 µM in data set [3]. Also, in data set [2], the inhibition constant (Ki) is 0.498 µM.

As for `Cn1cc(-c2cccc(F)c2)cc(NC(=O)N2CCC(n3c(=O)[nH]c4ncccc43)CC2)c1=O`, in data set [1], the IC50 amounted to 0.337 µM. For the same compound, the inhibition constant (Ki) in data set [2] was determined as 0.155 µM.

In the case of `Cn1cc(-c2cccc(O)c2)cc(NC(=O)N2CCC(n3c(=O)[nH]c4ncccc43)CC2)c1=O`, the IC50 worked out at 0.142 µM in [1] and 0.715 µM in [3]. For the same compound, the Ki in data set [2] came out at 0.042 µM.

Consider `Cn1cc(-c2ccc(O)cc2)cc(NC(=O)N2CCC(n3c(=O)[nH]c4ncccc43)CC2)c1=O`, for which the clearance in [8] was 16.1 mL/min/kg; in data set [5] it was 0.6 mL/min/kg. Further, the maximum concentration (Cmax) amounted to 0.1 µM in data set [9] and 0.6 µM in data set [4]. In addition, the bioavailability in [6] was 3%; in data set [11], 2%. Besides, the figures for the half-life in data set [7] and in data set [10] were 2.9 h and 1.1 h, respectively. Besides, the IC50 in data set [1] is 0.088 µM. Also, the Ki in [2] came to 0.043 µM.

As to `Cn1cc(-c2ccccc2O)cc(NC(=O)N2CCC(n3c(=O)[nH]c4ncccc43)CC2)c1=O`, in data set [1], the IC50 turned out to be 0.827 µM. Besides, the Ki in [2] is 0.22 µM.

Turning to `COCCn1cc(-c2ccc(O)cc2)cc(NC(=O)N2CCC(n3c(=O)[nH]c4ncccc43)CC2)c1=O`, the IC50 in data set [1] is 0.17 µM; in data set [3] it was 0.28 µM. In data set [2], the Ki stood at 0.074 µM.

`COCCn1cc(-c2ccccc2)cc(NC(=O)N2CCC(n3c(=O)[nH]c4ncccc43)CC2)c1=O` displayed a clearance in [8] of 25.3 mL/min/kg. The peak level in data set [9] (Cmax) was 1.3 µM. Also, the half-life in data set [10] was 0.5 h. In addition, in data set [11], the bioavailability was found to be 37%. Besides, the IC50 in data set [1] was found to be 0.665 µM. In addition, the Ki in data set [2] amounted to 0.228 µM.

Turning to `O=C(Nc1cc(-c2ccn[nH]2)cn(CC(F)(F)F)c1=O)N1CCC(n2c(=O)[nH]c3ncccc32)CC1`, the figures for the half-inhibitory concentration (IC50) in [1] and in [3] were 0.55 µM and 1.42 µM, respectively. Besides, the inhibition constant (Ki) in data set [2] stood at 0.205 µM.

With `O=C(Nc1ccc(-c2ccccc2)n(CC2CC2)c1=O)N1CCC(n2cc(-c3ccccc3)[nH]c2=O)CC1`, in [2], the Ki is 3.4 µM.

Regarding `Cn1cc(-c2cccnc2)cc(NC(=O)N2CCC(n3c(=O)[nH]c4ncccc43)CC2)c1=O`, the concentration for half-maximal inhibition (IC50) in [1] turned out to be 1.07 µM. For the same compound, the inhibitory constant (Ki) in [2] was 0.27 µM.

`O=C(Nc1cc(-c2ccccc2)cn(CC2CC2)c1=O)N1CCC(n2c(=O)[nH]c3ncccc32)CC1`: the IC50 in data set [1] was found to be 0.302 µM. Moreover, the inhibitory constant (Ki) in [2] was 0.17 µM.

Take `Cn1cc(-c2ccc(S(C)(=O)=O)cc2)cc(NC(=O)N2CCC(n3c(=O)[nH]c4ncccc43)CC2)c1=O`: in [2], the Ki was 1.75 µM.

For the compound `Cn1cc(C2C=NC=N2)cc(NC(=O)N2CCC(n3c(=O)[nH]c4ncccc43)CC2)c1=O` (stereo not given), the Ki in [2] is 2.05 µM.

Turning to `O=C(Nc1cc(-c2ccccc2F)cn(CC(F)(F)F)c1=O)N1CCC(n2c(=O)[nH]c3ncccc32)CC1`, in data set [1], the IC50 came out at 0.186 µM. Besides, the Ki in data set [2] was found to be 0.054 µM.

As for `Cn1cc(-c2cccc(F)c2F)cc(NC(=O)N2CCC(n3c(=O)[nH]c4ncccc43)CC2)c1=O`, in [1], the 50% inhibitory concentration (IC50) amounted to 0.567 µM. The inhibition constant (Ki) in [2] came to 0.166 µM.

The values above are taken from ChEMBL document CHEMBL1143152, “Calcitonin gene-related peptide (CGRP) receptor antagonists: investigations of a pyridinone template” (Bioorg Med Chem Lett, 2008).
